Data: patent US8987286B2, “Substituted pyrimido[1,2-b]indazoles and their use as modulators of the Pi3K/Akt pathway” (Bayer Intellectual Property GmbH, priority 2010, dated 2015)

biological target: Akt1 (Homo sapiens (Human), UniProt P31749); experiment: Akt1 kinase assay (Akt1 TR-FRET assay); type: biochemical; conditions: His-tagged human recombinant full-length Akt1, 10 μM ATP, 1 μM peptide substrate
Excerpt: Biological Assay 1.0: Akt1 Kinase Assay
Akt1 inhibitory activity of compounds of the present invention was quantified employing the Akt1 TR-FRET assay as described in the following paragraphs.
His-tagged human recombinant kinase full-length Akt1 expressed in insect cells was purchased form Invitrogen (part number PV 3599). As substrate for the kinase reaction the biotinylated peptide biotin-Ahx-KKLNRTLSFAEPG (C-terminus in amide form) was used which can be purchased e.g. from the company Biosynthan GmbH (Berlin-Buch, Germany).
For the assay 50 nl of a 100 fold concentrated solution of the test compound in DMSO was pipetted into a black low volume 384 well microtiter plate (Greiner Bio-One, Frickenhausen, Germany), 2 μl of a solution of Akt1 in assay buffer [50 mM TRIS/HCl pH 7.5, 5 mM MgCl2, 1 mM dithiothreitol, 0.02% (v/v) Triton X-100 (Sigma)] were added and the mixture was incubated for 15 min at 22° C. to allow pre-binding of the test compounds to the enzyme before the start of the kinase reaction. Then the kinase reaction was started by the addition of 3 μl of a solution of adenosine-tri-phosphate (ATP, 16.7 μM=>final conc. in the 5 μl assay volume is 10 μM) and substrate (1.67 μM=>final conc. in the 5 μl assay volume is 1 μM) in assay buffer and the resulting mixture was incubated for a reaction time of 60 min at 22° C. The concentration of Akt1 in the assay was adjusted depending of the activity of the enzyme lot and was chosen appropriate to have the assay in the linear range, typical enzyme concentrations were in the range of about 0.05 ng/μl (final conc. in the 5 μl assay volume).
The reaction was stopped by the addition of 5 μl of a solution of HTRF detection reagents (200 nM streptavidine-XL665 [Cisbio] and 1.5 nM anti-phosho-Serine antibody [Millipore, cat. #35-001] and 0.75 nM LANCE Eu-W 1024 labeled anti-mouse IgG antibody [Perkin Elmer]) in an aqueous EDTA-solution (100 mM EDTA, 0.1% (w/v) bovine serum albumin in 50 mM HEPES/NaOH pH 7.5).
The resulting mixture was incubated 1 h at 22° C. to allow the binding of the biotinylated phosphorylated peptide to the streptavidine-XL665 and the antibodies. Subsequently the amount of phosphorylated substrate was evaluated by measurement of the resonance energy transfer from the anti-mouse-IgG-Eu-Chelate to the streptavidine-XL665. Therefore, the fluorescence emissions at 620 nm and 665 nm after excitation at 350 nm was measured in a HTRF reader, e.g. a Rubystar (BMG Labtechnologies, Offenburg, Germany) or a Viewlux (Perkin-Elmer). The ratio of the emissions at 665 nm and at […] was taken as the measure for the amount of phosphorylated substrate. The data were normalised (enzyme reaction without inhibitor=0% inhibition, all other assay components but no enzyme=100% inhibition).

Chain of Akt1 (P31749 whole entry): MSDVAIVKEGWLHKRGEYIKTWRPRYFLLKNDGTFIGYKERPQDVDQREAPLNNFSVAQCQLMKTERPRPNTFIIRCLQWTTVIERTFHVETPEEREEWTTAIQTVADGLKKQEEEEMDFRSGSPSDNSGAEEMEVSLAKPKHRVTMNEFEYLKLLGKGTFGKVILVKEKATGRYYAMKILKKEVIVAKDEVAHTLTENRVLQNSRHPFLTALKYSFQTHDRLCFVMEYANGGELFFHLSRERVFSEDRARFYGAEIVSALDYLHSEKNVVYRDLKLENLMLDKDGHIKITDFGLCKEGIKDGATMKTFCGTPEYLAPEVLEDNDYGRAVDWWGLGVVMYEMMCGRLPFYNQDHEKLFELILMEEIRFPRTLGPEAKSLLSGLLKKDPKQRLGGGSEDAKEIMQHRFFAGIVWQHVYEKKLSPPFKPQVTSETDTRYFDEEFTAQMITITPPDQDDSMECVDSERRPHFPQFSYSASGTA

First: NC1(c2ccc(-c3nc4c5cccc(-c6cn[nH]c6)c5nn4cc3-c3ccccc3)cc2)CCC1 [Example 8.5, 1-{4-[3-Phenyl-7-(1H-pyrazol-4-yl)pyrimido[1,2-b]indazol-2-yl]-phenyl}cyclobutylamine×0.5 formiate]
Second: COC(=O)c1cccc2c1nn1cc(-c3ccccc3)c(-c3ccc(C4(N)CCC4)cc3)nc21 [Example 10, 2-[4-(1-Aminocyclobutyl)phenyl]-3-phenylpyrimido[1,2-b]indazole-7-carboxylic acid methyl ester formiate]
The IC50 of the first is 4.6-fold lower: 0.16 µM for the first, 0.74 µM for the second. The first is the more potent here.

Going from NC(=O)/C=C/c1cccc2c1nn1cc(-c3ccccc3)c(-c3ccc(C4(N)CCC4)cc3)nc21 [Example 14, (E)-3-{2-[4-(1-Aminocyclobutyl)phenyl]-3-phenylpyrimido[1,2-b]indazol-7-yl}-acrylamide] to NC(=O)/C=C/c1ccc2nn3cc(-c4ccccc4)c(-c4ccc(C5(N)CCC5)cc4)nc3c2c1 [Example 15.5, (E)-3-{2-[4-(1-Aminocyclobutyl)phenyl]-3-phenylpyrimido[1,2-b]indazol-9-yl}acrylamide], the IC50 falls from 0.58 µM to 0.03 µM (19-fold). The second is the more potent here.

First: NC1(c2ccc(-c3nc4c5ccc(-c6ccn[nH]6)cc5nn4cc3-c3ccccc3)cc2)CCC1 [Example 15.0, 1-{4-[3-Phenyl-8-(1H-pyrazol-5-yl)pyrimido[1,2-b]indazol-2-yl]phenyl}-cyclobutylamine]
Second: NC1(c2ccc(-c3nc4c5cc(-c6ccn[nH]6)ccc5nn4cc3-c3ccccc3)cc2)CCC1 [Example 15.2, 1-{4-[3-Phenyl-9-(1H-pyrazol-5-yl)pyrimido[1,2-b]indazol-2-yl]-phenyl}cyclobutylamine]
The IC50 of the first is 1.5-fold higher: 0.015 µM for the first, 0.01 µM for the second. The second is the more potent here.

First: Cc1cc(-c2ccc3c(c2)nn2cc(-c4ccccc4)c(-c4ccc(C5(N)CCC5)cc4)nc32)[nH]n1 [Example 15.1, 1-{4-[8-(3-Methyl-1H-pyrazol-5-yl)-3-phenylpyrimido[1,2-b]indazol-2-yl]phenyl}cyclobutylamine]
Second: Cc1cc(-c2ccc3nn4cc(-c5ccccc5)c(-c5ccc(C6(N)CCC6)cc5)nc4c3c2)[nH]n1 [Example 15.3, 1-{4-[9-(3-Methyl-1H-pyrazol-5-yl)-3-phenylpyrimido[1,2-b]indazol-2-yl]phenyl}cyclobutylamine]
The IC50 of the first is 1.7-fold higher: 0.01 µM for the first, 0.006 µM for the second.

COC(=O)/C=C/c1ccc2nn3cc(-c4ccccc4)c(-c4ccc(C5(N)CCC5)cc4)nc3c2c1 [Example 15.4, (E)-3-{2-[4-(1-Aminocyclobutyl)phenyl]-3-phenylpyrimido[1,2-b]indazol-9-yl}acrylic acid methyl ester] was tested, and the IC50 was 0.01 µM.
